Data published in PMC8775380, “A Complexed Crystal Structure of a Single-Stranded DNA-Binding Protein with Quercetin and the Structural Basis of Flavonol Inhibition Specificity” (International Journal of Molecular Sciences, 2022).

Tests used:
[1] = target: T1, Pseudomonas aeruginosa single-stranded DNA-binding protein (PaSSB) (Pseudomonas aeruginosa, UniProt P40947); assay: EMSA, inhibition of PaSSB binding to biotin-labeled dT35 ssDNA; assay type: biochemical; design: gene ssb; purified recombinant PaSSB
T1 sequence (P40947 2-165): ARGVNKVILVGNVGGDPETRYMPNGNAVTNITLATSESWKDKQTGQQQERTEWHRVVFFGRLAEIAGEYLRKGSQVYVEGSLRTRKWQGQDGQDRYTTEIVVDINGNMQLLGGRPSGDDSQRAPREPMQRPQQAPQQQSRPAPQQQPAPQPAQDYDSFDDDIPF

[2] = target: T1, Pseudomonas aeruginosa single-stranded DNA-binding protein (PaSSB); assay: X-ray crystal structure of the complex, […] Å; design: gene ssb; recombinant PaSSB; amino acids 114–165 not observed in the structure
[3] = target: PaSSB (single-stranded DNA-binding protein) (Pseudomonas aeruginosa, UniProt P40947 1-165); assay: EMSA; no flavonol; protein concentration at 50% bound; EMSA: 40 mM Tris-HCl pH 7.5, 50 mM NaCl, 37 °C 60 min, DNA 30 fmol/uL, PaSSB 0-5 uM; 8% native PAGE in TBE; flavonols dissolved in 10% DMSO; conditions: protein: recombinant; chain copies: 4; label: biotin (3' in Results, 5' in Methods); single strand

O=c1c(O)c(-c2cc(O)c(O)c(O)c2)oc2cc(O)cc(O)c12 [myricetin]
IC50 [1]: 2800 ± 400 nM

O=c1c(O)c(-c2ccc(O)c(O)c2)oc2cc(O)cc(O)c12 [quercetin]
X-ray crystal structure of the complex, 2.32 Å [2]: The electron density of quercetin was well-defined and indicated the presence of quercetin in the structure of PaSSB

TTTTTTTTTTTTTTTTTTTTTTTTTTTTTTTTTTT (ssDNA) [dT35]
apparent K (half saturation) [3]: 548 ± 36 nM
